How the values were obtained:
293 ATXN3/Q75-GFP cells = assay: ATXN3/Q75 aggregation assay (high content analysis); format: cell-based; conditions: at 100 nM; doxycycline and oxaliplatin 6 days; positive control
Experimental: 293 ATXN3/Q75-GFP cells were plated into 96-well (2×10^4/well) dishes, grown for 24 hr and treated with different concentrations of the trehalose or analogs (100 nM˜100 μM) and suberoylanilide hydroxamic acid (SAHA, Cayman Chemical) for 8 hr. Then, doxycycline (10 μg/mL, BD) was added to the medium in each well to induce ATXN3/Q75-GFP expression for 6 days. Oxaliplatin (5 μM, Sigma) was also added to increase aggregate accumulation through inhibition of cell division. Then, cells were stained with Hoechst 33342 (0.1 μg/mL, Sigma) and aggregation percentage was assessed by high content analysis (HCA) system (ImageXpressMICRO, Molecular Devices), with excitation/emission wavelengths at 482/536 (EGFP).
In the present example, the influences of the trehalose and analogs and HDAC inhibitor SAHA in the ATXN3/Q75-GFP cells were respectively examined. After 6 days of the treatment of doxycycline and oxaliplatin, the fluorescence microscopy images were observed, and aggregation percentage of ATXN3/Q75-GFP cells was assessed by high-content analysis system. The result was shown in FIG. 3, as a positive control, HDAC inhibitor SAHA reduced the ATXN3/Q75 aggregation to 85% (at 100 nM) as compared to untreated cells (100%).

porcine kidney trehalase = molecular target: T1, porcine kidney trehalase (Sus scrofa, UniProt I3LIR5); assay: Inhibition of analogs against trehalase activity (glucose from trehalose, HPLC); format: biochemical; conditions: preincubated 30 min at 37°C
T1 sequence (I3LIR5 24-583): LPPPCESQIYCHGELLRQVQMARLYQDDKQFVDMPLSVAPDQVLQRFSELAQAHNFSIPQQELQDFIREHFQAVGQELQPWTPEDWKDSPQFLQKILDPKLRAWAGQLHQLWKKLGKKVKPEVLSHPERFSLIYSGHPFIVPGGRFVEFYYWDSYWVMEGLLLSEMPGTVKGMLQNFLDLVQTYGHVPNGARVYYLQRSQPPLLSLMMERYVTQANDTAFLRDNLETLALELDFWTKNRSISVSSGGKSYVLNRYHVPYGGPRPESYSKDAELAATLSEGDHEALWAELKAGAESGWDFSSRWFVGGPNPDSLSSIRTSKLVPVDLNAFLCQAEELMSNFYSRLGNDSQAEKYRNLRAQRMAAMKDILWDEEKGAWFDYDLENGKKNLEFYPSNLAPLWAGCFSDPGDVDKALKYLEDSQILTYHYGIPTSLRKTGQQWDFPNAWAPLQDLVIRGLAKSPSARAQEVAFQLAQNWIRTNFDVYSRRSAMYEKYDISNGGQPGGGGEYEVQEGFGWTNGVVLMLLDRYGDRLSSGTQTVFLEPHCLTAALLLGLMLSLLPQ
Experimental: Hydrolysis of trehalose and analogs was tested using porcine kidney trehalase (Sigma-Aldrich, T8778). The standard reaction was performed by adding 0.001 unit of trehalase into 50 μl reaction solution containing 135 mM citric acid (pH 5.7) and 28 mM trehalose or trehalose analogs. […] The standard reaction was performed by adding 0.001 unit of trehalase into 50 μl reaction solution containing 135 mM citric acid (pH 5.7) and 44.8 mM α-D-lactulose, 44.8 mM α-D-melibiose, 0.2 μM validamycin A, or 0.2 μM validoxylamine A. Trehalase was incubated with analog for 30 min at 37° C., and the reaction was then started by addition of trehalose. After incubation at 37° C. for 2 hr, the reaction was terminated by heating the mixture in boiling water for 15 min. The activity of trehalase was assayed by measuring the amount of glucose produced from trehalose. The amount of carbohydrates after each enzymatic reaction was measured using a high-performance liquid chromatography (HPLC) system (Schambeck SFD 2100) equipped with an refractive index (RI) detector (SFD, RI 2000) at a flow rate of 1 ml/min. A carbohydrate analysis column (Shodex SUGAR SZ5532, 6.0 mm ID×150 mm L) equilibrated with 75% acetonitrile, 24% Milli-Q water, and 1% formic acid was used. The RI detector and column oven temperature were set to 40 and 60° C., respectively.
Hydrolysis of trehalose, lactulose and melibiose (28 mM) was tested using porcine kidney trehalase (1 mU).

Row | Compound | Inhibition of trehalase activity (glucose generated from trehalose) (porcine kidney trehalase; 0.2 μM inhibitor) | Inhibition of trehalase activity (glucose generated from trehalose) (porcine kidney trehalase; 44.8 mM analog) | further results
1 | O=C(CCCCCCC(=O)Nc1ccccc1)NO [SAHA, suberoylanilide hydroxamic acid] |  |  | ATXN3/Q75 aggregation as compared to untreated cells (100%) (293 ATXN3/Q75-GFP cells): 85%
2 | OCC1=C[C@@H](N[C@H]2C[C@H](CO)[C@@H](O[C@H]3O[C@@H](CO)[C@H](O)[C@@H](O)[C@@H]3O)[C@H](O)[C@H]2O)[C@H](O)[C@@H](O)[C@@H]1O [validamycin A] | can inhibit the trehalase activity |  | 
3 | OC[C@H]1O[C@@H](O[C@@H]2[C@@H](CO)O[C@](O)(CO)[C@H]2O)[C@H](O)[C@@H](O)[C@H]1O [lactulose, α-D-lactulose] |  | did not inhibit the trehalase activity | 
4 | OCC1=C[C@H](N[C@H]2C[C@H](CO)[C@@H](O)[C@H](O)[C@H]2O)[C@H](O)[C@@H](O)[C@@H]1O [validoxylamine A] | can inhibit the trehalase activity |  | 
5 | OC[C@H]1O[C@H](OC[C@H]2O[C@H](O)[C@H](O)[C@@H](O)[C@@H]2O)[C@H](O)[C@@H](O)[C@H]1O [melibiose, D-(+)-melibiose] |  | did not inhibit the trehalase activity | 

Source: patent US9463197B2, “Method for treating abnormal polyglutamine-mediated disease” (NATIONAL TAIWAN NORMAL UNIVERSITY, priority 2013, dated 2016)
